# Source: patent publication US12571801B2, “Tandem activity-based sensing and labeling strategy for reactive oxygen species imaging” (The Regents of the University of California, priority 2021, dated 2026)
# Tests used:
# [1] = Fluorescence response of probes to H2O2 in buffer; details: 1 μM probe, 25 μM H2O2, PBS (pH 7.4), 37° C.
# Protocol: (§1) FIGS. 1A-I. Fluorescence responses and activity-based sensing and labeling properties of PG1-FM, MitoPY1-FM, and PR1-FM. (A, B, C) Activity-based sensing fluorescence responses of 1 μM PG1-FM (A), 1 μM MitoPY1-FM (B), and 1 μM PR1-FM (C) to 25 μM H2O2. Data were acquired in PBS (pH 7.4) at 37° C. (D, E, F) Fluorescence responses of 1 μM PG1-FM (D), 1 μM MitoPY1-FM (E), and 1 μM PR1-FM (F) towards biologically relevant competing reactive oxygen species and reactive nitrogen species. (G, H, I) H2O2-dependent activity-based labeling of PG1-FM (G), MitoPY1-FM (H), and PR1-FM (I) to BSA. A solution of BSA (0.5 mg/mL) and PG1-FM (1 μM), MitoPY1-FM (1 μM), and PR1-FM (1 μM) in PBS (pH 7.4) was incubated with or without H2O2(100 μM) and analyzed by SDS-PAGE gel.
# (§2) We first evaluated the in vitro response of PG1-FM, MitoPY1-FM, and PR1-FM to hydrogen peroxide in aqueous solution buffered to physiological pH. […] PG1-FM converted to a fluorescent product that undergoes subsequent hydrolysis with H2O by LC analysis (FIG. 9A-B). […] To establish activity-based labeling of PG1-FM, MitoPY1-FM, and PR1-FM in a H2O2-dependent manner, we incubated the probes with bovine serum albumin (BSA) as a model protein substrate in the presence or absence of H2O2, and the reactions were analyzed by SDS-PAGE.
# (§3) PG1-FM was dissolved in DMSO to obtain a 1 mM stock solution. The fluorescence spectra of PG1-FM (1 μM) were measured in PBS (−) containing 25 μM of H2O2, OCl^−, TBHP, O2^−, ONOO^−, or NO OCl^−, O2^−, ONOO^−, or NO were generated by using NaOCl (Fluka), potassium superoxide (SIGMA), Peroxynitrite (Cayman), and PROLI NONOate (Cayman), respectively. The fluorescence spectra of PG1-FM were collected an emission window between 500 nm to 650 nm with excitation at 488 nm.
# [2] = ROS selectivity analysis (fluorescence response to competing ROS/RNS); details: 1 μM probe; OCl−, TBHP, O2−, ONOO−, NO; PBS
# Protocol: as §1
# FIG. 8. Fluorescence spectra of PG1-FM reacted with […] of OCl^−, TBHP, O2^−, ONOO^−, NO or PBS (control). PG1-FM (1 μM) was incubated with […] of H2O2, OCl^−, TBHP, O2^−, ONOO^−, or NO at 37° C. in PBS (−). The mixtures were measured by fluorometer at any incubating times (0, 5, 15, 30, 45, and 60 min).
# as §3
# RAW 264.7 macrophages = assay: Imaging and flow cytometry of endogenous H2O2 in PMA-stimulated RAW264.7 macrophages; format: cell-based, mouse; details: for probe fluorescence in PMA-treated RAW 264.7 cells vs control: probe 10 μM, PMA 1 μg/mL 60 min, confocal microscopy and flow cytometry
# Protocol: (A) Confocal microscopy (top row) and overlaid brightfield (bottom row) images of RAW264.7 macrophages stained with PG1-FM (10 μM) and then treated with PMA (1 μg/mL) or vehicle control for 60 min, washed and imaged, or first pre-treated with NADPH oxidase inhibitor DPI (5 μM) or antioxidant ebselen (5 μM) for 30 min in HBSS solution before PG1-FM staining and PMA stimulation. (B) Flow cytometry histograms and (C) quantification of mean value fluorescence intensity using PG1-FM under same conditions as (A). (D) Confocal microscopic images of RAW264.7 macrophages stained with PR1-FM (10 μM) under same conditions as (A). **P<0.01.
# We next tested the ability of PG1-FM and PR1-FM to monitor H2O2 production in RAW 264.7 macrophages.
# RAW264.7 cells were plated on a μ-slide 8 well (ibidi) and cultured at 37° C. overnight in a 5% CO2 incubator. The cells were pretreated with inhibitors, DPI (5 μM) or Ebselen (10 μM), for 30 min in HBSS. Afterward, the cells were co-incubated with PG1-FM (10 μM) and PMA (1 μg/mL) with or without DPI or Ebselen. The cells were observed on confocal microscope after washing with HBSS twice.
# RAW264.7 cells were plated on a 6 well plate and cultured at 37° C. overnight in a 5% CO2 incubator. The cells were pretreated with inhibitors, DPI (5 μM) or Ebselen (10 μM), for 30 min in HBSS. Afterward, the cells were co-incubated with PG1-FM (5 μM) and PMA (1 μg/mL) with or without DPI or Ebselen. The cells were harvested by 0.05% Trypsin with EDTA, filtered, and analyzed with flow cytometer.
# [3] = molecular target: bovine serum albumin (BSA) (Bos taurus, UniProt P02769); assay: H2O2-dependent activity-based labeling of BSA, SDS-PAGE; format: biochemical; details: BSA 0.5 mg/mL, with or without H2O2 (100 μM)
# Sequence of bovine serum albumin (BSA) (P02769 25-607): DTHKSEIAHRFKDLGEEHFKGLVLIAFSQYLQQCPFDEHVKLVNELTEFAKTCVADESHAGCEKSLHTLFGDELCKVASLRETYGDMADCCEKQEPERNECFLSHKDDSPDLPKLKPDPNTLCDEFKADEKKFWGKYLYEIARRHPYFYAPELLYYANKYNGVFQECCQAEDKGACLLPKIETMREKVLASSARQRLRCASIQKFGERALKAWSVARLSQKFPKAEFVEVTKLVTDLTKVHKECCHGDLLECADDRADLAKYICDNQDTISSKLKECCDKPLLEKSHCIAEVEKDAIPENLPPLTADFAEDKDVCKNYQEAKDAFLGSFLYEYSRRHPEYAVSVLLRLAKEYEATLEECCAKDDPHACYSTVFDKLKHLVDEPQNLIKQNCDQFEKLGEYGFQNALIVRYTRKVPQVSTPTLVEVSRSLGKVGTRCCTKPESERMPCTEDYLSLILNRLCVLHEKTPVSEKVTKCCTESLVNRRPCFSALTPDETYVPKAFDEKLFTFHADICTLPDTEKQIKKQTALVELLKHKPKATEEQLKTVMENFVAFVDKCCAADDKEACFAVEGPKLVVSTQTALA
# Protocol: as §1, §2
# PG1-FM (10 μM) and BSA (0.5 mg/mL) were incubated at 25° C. for 1 h with or without H2O2 (100 μM). Afterward, Ebselen (100 μM) was added to the mixture to quench excess of H2O2. The obtained samples were separated with Novex™ Mini Gel (Thermo). The gel was first analyzed by ChemiDoc™ MP (Bio-Rad) to take a fluorescence images, and stained with Coomassie brilliant blue (CBB) Solution
# HeLa cells [4] = assay: Confocal imaging of exogenous H2O2 in live HeLa cells; format: cell-based; details: 5 μM probe; for probe fluorescence in HeLa cells on exogenous H2O2 treatment: H2O2 (1 mM) 60 min vs vehicle, confocal
# Protocol: FIGS. 2A-C. Exogenous H2O2 detection. Confocal microscopic images of HeLa cell stained with PG1-FM, PR1-FM, and MitoPY1-FM. (A, B) HeLa cells were pe-stained with PG1-FM (5 μM) or PR1-FM (5 μM) at 37° C. in a 5% CO2 incubator. After incubating for 30 min, the cells were washed with HBSS twice, and treated with H2O2 (1 mM) for 60 min. The cells were observed on confocal microscope after washing with HBSS twice. (C) HeLa cells were pe-stained with MitoPY1-FM (5 μM) at 37° C. in a 5% CO2 incubator. After incubating for 30 min, the cells were washed with HBSS twice, and treated with H2O2 (1 mM) for 60 min. The cells were observed on confocal microscope after staining with MitoBright LT Green for 30 mi. Scale bar: 50 μm.
# We next assessed the ability of PG1-FM, MitoPY1-FM, and PR1-FM for visualizing changes in H2O2 levels in live cells with exogenous H2O2 treatment. HeLa cells were pre-stained with 5 μM of PG1-FM, MitoPY1-FM, or PR1-FM, treated with H2O2 (1 mM) or vehicle control, washed, and imaged. MitoPY1-FM stained HeLa cells were co-stained with MitoBright LT Green before imaging. […] We observed that the probes load evenly throughout the cell and responds to elevations in H2O2(FIGS. 2A, 2B, and 2C).
# Cells were grown at the UC Berkeley Tissue Culture Facility. HeLa, RAW264.7, and A431 cells were cultured in DMEM (high glucose) supplemented with 10% (v/v) fetal bovine serum, GlutaMAX, and NEAA. All cells were maintained in a humidified 5% CO2 incubator at 37° C.
# zebrafish = assay: In vivo live imaging of endogenous H2O2 in zebrafish, tail fin cut model
# Protocol: FIG. 6. Confocal microscopic images of zebrafish labeled with PR1-FM. Zebrafish embryos in E3 medium containing P1-FM (5 μM) were incubated overnight. The fishes were additionally incubated for 1 hour with containing DPI (100 nM) before the tail fin cut.
# We sought to apply PR1-FM for in vivo live imaging to detect endogenous hydrogen peroxide production. PR1-FM was tested with live zebrafish in the regenerated fin model. The larvae at two days post-fertilization (dpf) was pre-stained with PR1-FM (5 μM) overnight before tail fin cut. […] Taken together, PR1-FM can be useful for detecting hydrogen peroxide in live zebrafish.
# A431 cells = assay: Imaging of endogenous H2O2 in EGF-stimulated A431 cells; format: cell-based
# Protocol: (A) Confocal microscopy (top row) and overlaid brightfield (bottom row) images of A431 cells stained with PG1-FM (10 μM) and then treated with EGF (1 μg/mL) or vehicle control for 30 min, washed and imaged, or first pre-treated with NADPH oxidase inhibitor DPI (5 μM) or antioxidant ebselen (5 μM) for 30 min in HBSS solution before PG1-FM staining and EGF stimulation. (B) Quantification of experiments.
# HeLa cells [5] = assay: Imaging and flow cytometry of endogenous H2O2 in paraquat-treated HeLa cells; format: cell-based; details: paraquat 1 mg/mL 24 h; confocal microscopy, verified by flow cytometry
# Protocol: FIGS. 3A-C. PG1-FM imaging of endogenous H2O2 generation in live HeLa cells under oxidative stress conditions stimulated by paraquat. (A) Confocal microscopy images of HeLa cells treated with or without paraquat (1 mg/mL) for 24 h, stained with PG1-FM (10 μM) for 1 h, washed twice with HBSS, and imaged. Scale bar: 50 μm. (B) Flow cytometry analysis of the cells treated with or without paraquat using PG1-FM using same conditions as (A). (C) Flow cytometric data quantified with mean value. **P<0.01.
# We next utilized PG1-FM for imaging endogenous H2O2 fluxes produced by multiple types of cell models under various stimulation conditions. Our first set of experiments along these lines evaluated the performance of the probe under conditions of oxidative stress induced by paraquat treatment. HeLa cells were stimulated with or without paraquat (1 mg/mL) for 24 h to induce ROS and oxidative stress, followed by staining with PG1-FM for 30 min, washing, and imaging. […] Because the probe is cell-trappable, we verified the observed fluorescence enhancements using flow cytometry (FIG. 3B, 3C), highlighting its utility in this analytical method as well.
# HeLa cells [6] = assay: Imaging of mitochondrial H2O2 in HeLa cells treated with Antimycin or Rotenone; format: cell-based
# Protocol: FIGS. 7A-B. Confocal microscopic images of HeLa cell stained with MitoPY1-FM. (A) HeLa cell was stained with MitoPY1-FM (5 μM) for 1 h. After washing the cell with non-FBS medium, the cell was treated with Antimycin (1 μM) or Rotenone (1 μM) for 24 h. The cells were observed on confocal microscope after washing the cell. (B) Confocal microscopic images of fixed HeLa cell stained with MitoPY1-FM and Tom 20 antibody. HeLa cells were stained with MitoPY1-FM and then exposed with antimycin A. The treated cells were fixed and stained with Tom 20 antibody before the observation.
# We evaluated MitoPY1-FM for imaging mitochondrial H2O2 fluxes produced by inhibition of mitochondrial electron transporter chain. HeLa cells were pre-stained with MitoPY1-FM (5 μM) and stimulated by Antimycin (1 μM) or Rotenone (1 μM) for 24 h to induce ROS and oxidative stress.
Structure (SMILES),fluorescence response after treatment with H2O2 [1],selectivity of fluorescence response for H2O2 over other ROS and RNS [2],probe fluorescence in PMA-treated RAW 264.7 cells vs control (RAW 264.7 macrophages),H2O2-dependent fluorescent labeling of BSA [3],probe fluorescence in HeLa cells on exogenous H2O2 treatment (HeLa cells [4]),"probe fluorescence in zebrafish post-cut vs pre-cut of tail fin (zebrafish; larvae 2 dpf, PR1-FM 5 μM overnight)",effect of inhibitor on PMA-induced probe fluorescence increase in RAW 264.7 cells (RAW 264.7 macrophages; inhibitor pre-treatment 30 min in HBSS),effect of inhibitor on H2O2-induced PG1-FM fluorescence in EGF-stimulated A431 cells (A431 cells; inhibitor 5 μM pre-treatment 30 min),"effect of inhibitor on PR1-FM fluorescence in zebrafish after tail fin cut (zebrafish; DPI 100 nM, 1 hour before the tail fin cut)",probe fluorescence in paraquat-exposed vs untreated HeLa cells (HeLa cells [5]),"probe fluorescence in EGF-stimulated A431 cells vs control (A431 cells; PG1-FM 10 μM, EGF 1 μg/mL 30 min, confocal)","probe fluorescence in mitochondria of HeLa cells exposed to electron transport chain inhibitors vs untreated (HeLa cells [6]; MitoPY1-FM 5 μM, Antimycin (1 μM) or Rotenone (1 μM) 24 h)","localisation of probe fluorescence in fixed HeLa cells co-stained with Tom20 antibody (HeLa cells [6]; antimycin A exposed, fixed cells)","localisation by co-staining with MitoBright LT Green (HeLa cells [4]; HeLa cells, H2O2 (1 mM))"
"CN(C)c1ccc2c(c1)[Si](C)(C)c1c(ccc(B3OC(C)(C)C(C)(C)O3)c1CF)C21OC(=O)c2ccccc21 (stereo not shown) [PR1-FM, Peroxy Red-1 Fluoromethyl]",clear fluorescence enhancement,highly selective response for H2O2,higher PG1-FM and PR1-FM fluorescence relative to control cells,fluorescent BSA-associated band was observed only under conditions with H2O2,fluorescence increase in the whole cells,patently higher fluorescence signals in post-cut condition,–,–,–,–,–,–,–,–
"c1ccc2c(c1)[I+]c1ccccc1-2 [DPI, diphenyleneiodonium, reference compound]",–,–,–,–,–,–,fluorescence increases are blocked,inhibited H2O2-induced enhancements in PG1-FM fluorescence,lower level of fluorescence,–,–,–,–,–
"COc1ccc2c(c1)Oc1c(ccc(B3OC(C)(C)C(C)(C)O3)c1CF)C21OC(=O)c2ccccc21 (stereo not shown) [PG1-FM, Peroxy Green-1 Fluoromethyl]",clear fluorescence enhancement,highly selective response for H2O2,higher PG1-FM and PR1-FM fluorescence relative to control cells,fluorescent BSA-associated band was observed only under conditions with H2O2,fluorescence increase in the whole cells,–,–,–,–,patent H2O2-dependent fluorescence increases,clear increase in fluorescence,–,–,–
"CC1(C)OB(c2ccc3c(c2CF)Oc2cc(N4CCN(C(=O)CCC[P+](c5ccccc5)(c5ccccc5)c5ccccc5)CC4)ccc2C32OC(=O)c3ccccc32)OC1(C)C.[Br-] (stereo not shown) [MitoPY1-FM, MitoPY1 Fluoromethyl]",clear fluorescence enhancement,highly selective response for H2O2,–,fluorescent BSA-associated band was observed only under conditions with H2O2,–,–,–,–,–,–,–,patent H2O2-dependent fluorescence increases,enhanced on mitochondria,overlapped with MitoBright LT
